Test results from patent US20260224516A1, “PHARMACEUTICAL FOR TREATING OR PREVENTING CHEMOTHERAPY-INDUCED PERIPHERAL NEUROPATHY” (NIPPON CHEMIPHAR CO., LTD., priority 2023, published 2026).

Assays:
[1] = tested on: oxaliplatin-induced peripheral neuropathy model mice; test: Oxaliplatin-induced mouse neuropathic pain model (Example 7): mechanical allodynia, Uralyt and sodium bicarbonate; type: in vivo, male C57BL/6J mice; settings: 0.75 g/kg sodium bicarbonate oral twice per day for 13 days; OXP 3 mg/kg i.p. single dose; FIG. 14: day 10
Description: (§1) For the alkalinizing agent, the same test substance as Example 1 and sodium bicarbonate (in this description also referred to as baking soda, manufactured by Tokyo Chemical Industry Co., Ltd., purity: at least 99.0%) were used. Following weighing of the required amount of the sodium bicarbonate, sufficient injection water was added to dissolve the sodium bicarbonate and prepare a solution of the target concentration at the time of use.
(§2) In the Sham group and the control group, the injection water used as the solvent for the alkalinizing agent was used.
(§3) The same type of animals as Example 1 were used. Specifically, six-week old male C57BL/6J mice (from Japan SLC, Inc.) were used. The animals were provided with an approximately one-week acclimatization period, and only healthy individuals were then selected for testing. […]
(§4) Grouping was conducted using the pain-related scores evaluated on the day prior to starting the test (the day prior to test substance administration) as a reference, and specifically, by dividing the individuals into each of the groups to ensure the same averaged pain-related score for each group. […]
Following the OXP administration, the level of pain was evaluated over time. […] A pain evaluation was also conducted on a day prior to the start of alkalinizing agent administration, and this evaluation was recorded as the Pre value. […]

[2] = tested on: paclitaxel-induced peripheral neuropathy model mice; test: Paclitaxel-induced mouse neuropathic pain model (Example 8): mechanical allodynia, Uralyt and sodium bicarbonate; type: in vivo, male C57BL/6J mice; settings: 0.75 g/kg sodium bicarbonate oral twice per day for 17 days; PTX 5 mg/kg i.p. single dose; FIG. 16: day 14
Description: as §1, §2, §3, §4
Following the PTX administration, the level of pain was evaluated over time. […] A pain evaluation was also conducted on a day prior to the start of alkalinizing agent administration, and this evaluation was recorded as the Pre value. […]

## O=C([O-])O.[Na+] [sodium bicarbonate]
[1]
  onset of mechanical allodynia (pain-related score): suppressed the onset of mechanical allodynia, but the effect was smaller than that observed for the Uralyt administration group
[2]
  onset of mechanical allodynia (pain-related score): suppressed the onset of mechanical allodynia, but the effect was smaller than that observed for the Uralyt administration group
